Source: ChEMBL document CHEMBL1201862, “PubChem BioAssay data set” (2004)
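Five concentrations, 48 hours, 96-well plates. GI50 = concentration required for 50% inhibition of growth.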 Active and inactive are the calls of the source. Cut-off read from the data, not from the text of the source: active = GI50 up to about 1.1 µM and inactive = higher.

Assays:
Experiment in all cases: inhibition of tumour cell growth, NCI panel, 48 h
OVCAR-4 = system: OVCAR-4
UACC-62 = system: UACC-62
SW-620 = system: SW-620
OVCAR-3 = system: OVCAR-3
SN12C = system: SN12C
RXF 393 = system: RXF 393
SK-MEL-28 = system: SK-MEL-28
HCT-15 = system: HCT-15
HOP-62 = system: HOP-62
SF-539 = system: SF-539
SK-MEL-2 = system: SK-MEL-2
HCT-116 = system: HCT-116
A498 = system: A498
OVCAR-5 = system: OVCAR-5
LOX IMVI = system: LOX IMVI
MCF7 = system: MCF7
A549 = system: A549
SK-OV-3 = system: SK-OV-3
K562 = system: K562
HT-29 = system: HT-29
IGROV-1 = system: IGROV-1
SF-295 = system: SF-295
NCI-H226 = system: NCI-H226
SR = system: SR
COLO 205 = system: COLO 205
CCRF-CEM = system: CCRF-CEM
MOLT-4 = system: MOLT-4
BT-549 = system: BT-549
T47D = system: T47D
UACC-257 = system: UACC-257
CAKI-1 = system: CAKI-1
OVCAR-8 = system: OVCAR-8
NCI/ADR-RES = system: NCI/ADR-RES
UO-31 = system: UO-31
U-251 = system: U-251
HCC 2998 = system: HCC 2998
MDA-MB-231 = system: MDA-MB-231
HL-60 = system: HL-60
HOP-92 = system: HOP-92
MDA-N = system: MDA-N
PC-3 = system: PC-3
NCI-H23 = system: NCI-H23
SK-MEL-5 = system: SK-MEL-5
NCI-H460 = system: NCI-H460
DU-145 = system: DU-145
MDA-MB-435 = system: MDA-MB-435
Malme-3M = system: Malme-3M
M14 = system: M14
TK-10 = system: TK-10
EKVX = system: EKVX
KM12 = system: KM12
SNB-19 = system: SNB-19
ACHN = system: ACHN
SNB-75 = system: SNB-75
786-0 = system: 786-0
Hs-578T = system: Hs-578T
RPMI-8226 = system: RPMI-8226
NCI-H522 = system: NCI-H522
SF-268 = system: SF-268

In the case of NC(Cc1ccccc1)C(=O)N[C@H]1c2ccsc2/C(=N/O)[C@H]1O (some centres undefined), the GI50 (OVCAR-4) is reported as > 100 µM (inactive), the GI50 (UACC-62) is reported as > 100 µM (inactive) and the GI50 (SW-620) is reported as > 100 µM (inactive). For the same compound, the GI50 (OVCAR-3) was > 100 µM (inactive), the GI50 (SN12C) was > 100 µM (inactive) and the GI50 (RXF 393) was > 100 µM (inactive). For the same compound, the GI50 (SK-MEL-28) was > 100 µM (inactive), the GI50 (HCT-15) was > 100 µM and the GI50 (HOP-62) was > 100 µM (inactive). The GI50 (SF-539) was > 100 µM (inactive), the GI50 (SK-MEL-2) was > 100 µM (inactive) and the GI50 (HCT-116) was > 100 µM (inactive). For the same compound, the GI50 (A498) was > 100 µM (inactive), the GI50 (OVCAR-5) was > 100 µM (inactive) and the GI50 (LOX IMVI) was > 100 µM (inactive). The GI50 (MCF7) was > 100 µM (inactive), the GI50 (A549) was > 100 µM (inactive) and the GI50 (SK-OV-3) was > 100 µM (inactive). The GI50 (K562) was > 100 µM (inactive), the GI50 (HT-29) was > 100 µM (inactive) and the GI50 (IGROV-1) was > 100 µM (inactive). For the same compound, the GI50 (SF-295) was > 100 µM (inactive), the GI50 (NCI-H226) was > 100 µM (inactive) and the GI50 (SR) was > 100 µM (inactive). For the same compound, the GI50 (COLO 205) was > 100 µM (inactive), the GI50 (CCRF-CEM) was > 100 µM (inactive) and the GI50 (MOLT-4) was > 10 µM (inactive). The GI50 (BT-549) was > 100 µM (inactive), the GI50 (T47D) was > 100 µM (inactive) and the GI50 (UACC-257) was > 100 µM (inactive). The GI50 (CAKI-1) was > 100 µM (inactive), the GI50 (OVCAR-8) was > 100 µM (inactive) and the GI50 (NCI/ADR-RES) was > 100 µM (inactive). The GI50 (UO-31) was 25.6 µM (inactive), the GI50 (U-251) was > 100 µM (inactive) and the GI50 (HCC 2998) was > 100 µM (inactive). For the same compound, the GI50 (MDA-MB-231) was > 100 µM (inactive), the GI50 (HL-60) was > 100 µM (inactive) and the GI50 (HOP-92) was > 100 µM (inactive). The GI50 (MDA-N) was > 100 µM (inactive), the GI50 (PC-3) was > 100 µM (inactive) and the GI50 (NCI-H23) was > 100 µM (inactive). The GI50 (SK-MEL-5) was > 100 µM (inactive), the GI50 (NCI-H460) was > 100 µM (inactive) and the GI50 (DU-145) was > 100 µM (inactive). The GI50 (MDA-MB-435) was > 100 µM (inactive), the GI50 (Malme-3M) was > 100 µM (inactive) and the GI50 (M14) was > 100 µM (inactive). For the same compound, the GI50 (TK-10) was > 100 µM (inactive) and the GI50 (EKVX) was > 100 µM (inactive).
In the case of CCC(=O)Nc1ccc(N2C(=O)C(Cl)C2c2ccc(SC)cc2)cc1 (centres undefined), the GI50 (KM12) is reported as > 100 µM (inactive), the GI50 (OVCAR-4) is reported as 33.5 µM (inactive) and the GI50 (UACC-62) is reported as > 100 µM (inactive). The GI50 (SW-620) was > 100 µM (inactive), the GI50 (OVCAR-3) was 81.5 µM (inactive) and the GI50 (SN12C) was 50.2 µM (inactive). The GI50 (RXF 393) was 34.8 µM (inactive), the GI50 (SK-MEL-28) was > 100 µM (inactive) and the GI50 (HCT-15) was 98.2 µM. The GI50 (HOP-62) was 61.7 µM (inactive), the GI50 (SF-539) was 26.9 µM (inactive) and the GI50 (SK-MEL-2) was 65 µM (inactive). For the same compound, the GI50 (HCT-116) was > 100 µM (inactive), the GI50 (A498) was > 100 µM (inactive) and the GI50 (OVCAR-5) was 97.5 µM (inactive). For the same compound, the GI50 (LOX IMVI) was 40.1 µM (inactive), the GI50 (MCF7) was 56.2 µM (inactive) and the GI50 (A549) was > 100 µM (inactive). The GI50 (SNB-19) was > 100 µM (inactive), the GI50 (SK-OV-3) was > 100 µM (inactive) and the GI50 (K562) was 72.9 µM (inactive). For the same compound, the GI50 (HT-29) was > 100 µM (inactive), the GI50 (IGROV-1) was 94.2 µM (inactive) and the GI50 (SF-295) was > 100 µM (inactive). For the same compound, the GI50 (NCI-H226) was 31.5 µM (inactive), the GI50 (SR) was 40.6 µM (inactive) and the GI50 (COLO 205) was 40.4 µM (inactive). For the same compound, the GI50 (CCRF-CEM) was 26.9 µM (inactive), the GI50 (MOLT-4) was 67.8 µM (inactive) and the GI50 (BT-549) was > 100 µM (inactive). For the same compound, the GI50 (ACHN) was > 100 µM (inactive), the GI50 (SNB-75) was > 100 µM (inactive) and the GI50 (T47D) was 73.6 µM (inactive). The GI50 (786-0) was 57.3 µM (inactive), the GI50 (UACC-257) was 44.9 µM (inactive) and the GI50 (CAKI-1) was > 100 µM (inactive). The GI50 (Hs-578T) was > 100 µM (inactive), the GI50 (OVCAR-8) was > 100 µM (inactive) and the GI50 (NCI/ADR-RES) was > 100 µM (inactive). For the same compound, the GI50 (UO-31) was > 100 µM (inactive), the GI50 (HCC 2998) was 30.9 µM (inactive) and the GI50 (RPMI-8226) was 32.5 µM (inactive). For the same compound, the GI50 (HL-60) was 78.3 µM (inactive), the GI50 (HOP-92) was > 100 µM (inactive) and the GI50 (NCI-H522) was 41 µM (inactive). For the same compound, the GI50 (MDA-N) was > 100 µM (inactive), the GI50 (PC-3) was > 100 µM (inactive) and the GI50 (SF-268) was 60.3 µM (inactive). For the same compound, the GI50 (NCI-H23) was > 100 µM (inactive), the GI50 (SK-MEL-5) was 20.7 µM (inactive) and the GI50 (NCI-H460) was 32.8 µM (inactive). The GI50 (DU-145) was > 100 µM (inactive), the GI50 (MDA-MB-435) was 63.7 µM (inactive) and the GI50 (Malme-3M) was > 100 µM (inactive). The GI50 (M14) was > 100 µM (inactive) and the GI50 (EKVX) was 52.7 µM (inactive).
CCCC(=O)NC(Nc1ccc(S(=O)(=O)Nc2nc(C)cc(C)n2)cc1)(C(F)(F)F)C(F)(F)F was tested, and the GI50 (KM12) was > 100 µM (inactive), the GI50 (OVCAR-4) was > 100 µM (inactive) and the GI50 (UACC-62) was > 100 µM (inactive). For the same compound, the GI50 (SW-620) was > 100 µM (inactive), the GI50 (OVCAR-3) was > 100 µM (inactive) and the GI50 (SN12C) was > 100 µM (inactive). For the same compound, the GI50 (RXF 393) was > 100 µM (inactive), the GI50 (SK-MEL-28) was > 100 µM (inactive) and the GI50 (HCT-15) was > 100 µM. For the same compound, the GI50 (HOP-62) was > 100 µM (inactive), the GI50 (SF-539) was > 100 µM (inactive) and the GI50 (SK-MEL-2) was > 100 µM (inactive). The GI50 (HCT-116) was > 100 µM (inactive), the GI50 (A498) was > 100 µM (inactive) and the GI50 (OVCAR-5) was > 100 µM (inactive). The GI50 (LOX IMVI) was > 100 µM (inactive), the GI50 (A549) was > 100 µM (inactive) and the GI50 (SNB-19) was > 100 µM (inactive). For the same compound, the GI50 (SK-OV-3) was > 100 µM (inactive), the GI50 (K562) was > 100 µM (inactive) and the GI50 (HT-29) was > 100 µM (inactive). The GI50 (IGROV-1) was > 100 µM (inactive), the GI50 (SF-295) was > 100 µM (inactive) and the GI50 (NCI-H226) was > 100 µM (inactive). The GI50 (SR) was > 100 µM (inactive), the GI50 (COLO 205) was > 100 µM (inactive) and the GI50 (CCRF-CEM) was > 100 µM (inactive). The GI50 (MOLT-4) was > 100 µM (inactive), the GI50 (BT-549) was > 100 µM (inactive) and the GI50 (ACHN) was > 100 µM (inactive). For the same compound, the GI50 (SNB-75) was > 100 µM (inactive), the GI50 (T47D) was > 100 µM (inactive) and the GI50 (786-0) was > 100 µM (inactive). The GI50 (UACC-257) was > 100 µM (inactive), the GI50 (CAKI-1) was > 100 µM (inactive) and the GI50 (Hs-578T) was > 100 µM (inactive). The GI50 (OVCAR-8) was > 100 µM (inactive), the GI50 (NCI/ADR-RES) was > 100 µM (inactive) and the GI50 (UO-31) was > 100 µM (inactive). The GI50 (U-251) was > 100 µM (inactive), the GI50 (HCC 2998) was > 100 µM (inactive) and the GI50 (RPMI-8226) was > 100 µM (inactive). The GI50 (MDA-MB-231) was > 100 µM (inactive), the GI50 (HL-60) was > 100 µM (inactive) and the GI50 (HOP-92) was > 100 µM (inactive). For the same compound, the GI50 (NCI-H522) was > 100 µM (inactive), the GI50 (MDA-N) was > 100 µM (inactive) and the GI50 (PC-3) was > 100 µM (inactive). For the same compound, the GI50 (SF-268) was > 100 µM (inactive), the GI50 (NCI-H23) was > 100 µM (inactive) and the GI50 (SK-MEL-5) was > 100 µM (inactive). The GI50 (NCI-H460) was > 100 µM (inactive), the GI50 (DU-145) was > 100 µM (inactive) and the GI50 (MDA-MB-435) was > 100 µM (inactive). The GI50 (Malme-3M) was > 100 µM (inactive), the GI50 (M14) was > 100 µM (inactive) and the GI50 (TK-10) was > 100 µM (inactive). The GI50 (EKVX) was > 100 µM (inactive).
